From patent publication US20240124408A1 (Sanofi, priority 2020, published 2024)
Values belong to the compound of their own block, whether it stands above or below them.

How the values were obtained:
human TRPM8 = molecular target: T1, human TRPM8 (Homo sapiens, UniProt Q7Z2W7); assay: In vitro human TRPM8 fluorescence calcium flux assay (recombinant CHO cells, Fluo4-AM, FDSS6000); assay type: cell-based; conditions: recombinant CHO cells expressing human TRPM8; menthol-related EC50, normalized to 100 μM menthol
T1 construct: expressed in transfected cells; host or cells: CHO (p658 mammalian expression vector)
T1 sequence (Q7Z2W7 whole entry): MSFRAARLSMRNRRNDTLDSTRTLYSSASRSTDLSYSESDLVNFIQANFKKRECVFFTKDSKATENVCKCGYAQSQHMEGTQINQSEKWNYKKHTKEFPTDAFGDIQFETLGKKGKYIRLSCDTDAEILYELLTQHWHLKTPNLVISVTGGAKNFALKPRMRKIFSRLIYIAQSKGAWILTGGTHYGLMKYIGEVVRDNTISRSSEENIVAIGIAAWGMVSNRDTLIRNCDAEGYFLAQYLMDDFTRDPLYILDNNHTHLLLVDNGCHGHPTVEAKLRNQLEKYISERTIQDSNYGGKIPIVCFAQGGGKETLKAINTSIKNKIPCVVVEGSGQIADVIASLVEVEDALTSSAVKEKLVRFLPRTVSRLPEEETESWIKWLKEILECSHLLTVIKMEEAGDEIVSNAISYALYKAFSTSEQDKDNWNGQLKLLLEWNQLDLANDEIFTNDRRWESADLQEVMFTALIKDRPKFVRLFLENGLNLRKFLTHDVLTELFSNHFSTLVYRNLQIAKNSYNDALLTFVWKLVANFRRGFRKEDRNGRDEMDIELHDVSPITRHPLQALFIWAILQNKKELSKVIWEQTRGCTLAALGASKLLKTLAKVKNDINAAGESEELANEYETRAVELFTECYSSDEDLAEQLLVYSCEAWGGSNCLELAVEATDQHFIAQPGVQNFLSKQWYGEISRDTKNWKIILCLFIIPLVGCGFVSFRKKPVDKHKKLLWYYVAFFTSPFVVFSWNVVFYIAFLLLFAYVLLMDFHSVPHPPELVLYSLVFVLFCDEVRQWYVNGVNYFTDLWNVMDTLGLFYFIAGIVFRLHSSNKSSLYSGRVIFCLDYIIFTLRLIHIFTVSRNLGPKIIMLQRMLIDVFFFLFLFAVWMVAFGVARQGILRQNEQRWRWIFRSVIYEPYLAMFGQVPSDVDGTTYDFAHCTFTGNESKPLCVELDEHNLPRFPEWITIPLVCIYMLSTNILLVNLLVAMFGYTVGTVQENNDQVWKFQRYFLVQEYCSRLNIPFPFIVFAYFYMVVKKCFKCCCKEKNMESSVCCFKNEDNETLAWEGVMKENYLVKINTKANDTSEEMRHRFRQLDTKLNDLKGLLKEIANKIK
Protocol: (§1) In Vitro Pig and Human TRPM8 Fluorescence Calcium Flux Assays
(§2) For functional expression of TRPM8, the full-length cDNA encoding human (NM_024080) and pig (XM_001927892.1) TRPM8 sequences were subcloned into p658 and pcDNA5/FRT/TO mammalian expression vectors, respectively. Engineered recombinant CHO cell lines expressing human or pig TRPM8 were generated. Culture media was Ham-F12 with 10% FCS for both lines, and for the pig cell line only 400 μg/ml hygromycin B and 30 μg/mL blasticidin were added as selection antibiotics (all reagents were obtained from Invitrogen, Fisher Scientific). Cells were grown in culture flasks up to 80% confluence where they were harvested using accutase (Sigma, MO, USA) to detach the cells by enzymatic dissociation and either seeded directly into assay plates or cryopreserved for future use.
(§3) For calcium flux assays, cells were plated into clear base poly-D-lysine coated 384-well plates (BD Biosciences, NJ USA) at a density of 15,000 cells per well in appropriate culture medium and grown overnight. The following day, all medium was removed then the cells were incubated with 2 μM of Fluo4-AM Dye (Molecular Probes) prepared in complete HBSS assay buffer containing 20 mM HEPES, 0.1% BSA, and 2.5 mM probenecid at room temperature for one hour. Following incubation, plates were inserted into a FDSS6000 instrument (Hamamatsu, Photonics, Japan) instrument, where cells were challenged with compounds of the formula (at varying concentrations) and intracellular calcium was measured kinetically for 3 min after addition.
(§4) This protocol allowed the determination of an EC50 value, from the sixteen-point dose response data, for each compound of the formula tested. Maximal fluorescence intensity achieved upon addition of 100 μM menthol (stock solution prepared in ethanol from solid, Sigma-Aldrich) was exported from the FDSS and further analyzed using IDBS XLFit 5. Data were normalized to the average 100 μM menthol response (maximum control wells) included in each plate. The dose response curves from the average of wells for each data point were analyzed by using nonlinear regression of sigmoidal dose response (formula 205). Finally, the (menthol-related) EC50 values (Half maximal effective concentration) were calculated with the best-fit dose curve determined by IDBS XLFit 5 software.

pig TRPM8 = molecular target: T2, pig TRPM8 (Sus scrofa, UniProt F1SM15); assay: In vitro pig TRPM8 fluorescence calcium flux assay (recombinant CHO cells, Fluo4-AM, FDSS6000); assay type: cell-based; conditions: recombinant CHO cells expressing pig TRPM8; menthol-related EC50, normalized to 100 μM menthol
T2 construct: expressed in transfected cells; host or cells: CHO (pcDNA5/FRT/TO vector; hygromycin B and blasticidin selection)
T2 sequence (F1SM15 1-1104): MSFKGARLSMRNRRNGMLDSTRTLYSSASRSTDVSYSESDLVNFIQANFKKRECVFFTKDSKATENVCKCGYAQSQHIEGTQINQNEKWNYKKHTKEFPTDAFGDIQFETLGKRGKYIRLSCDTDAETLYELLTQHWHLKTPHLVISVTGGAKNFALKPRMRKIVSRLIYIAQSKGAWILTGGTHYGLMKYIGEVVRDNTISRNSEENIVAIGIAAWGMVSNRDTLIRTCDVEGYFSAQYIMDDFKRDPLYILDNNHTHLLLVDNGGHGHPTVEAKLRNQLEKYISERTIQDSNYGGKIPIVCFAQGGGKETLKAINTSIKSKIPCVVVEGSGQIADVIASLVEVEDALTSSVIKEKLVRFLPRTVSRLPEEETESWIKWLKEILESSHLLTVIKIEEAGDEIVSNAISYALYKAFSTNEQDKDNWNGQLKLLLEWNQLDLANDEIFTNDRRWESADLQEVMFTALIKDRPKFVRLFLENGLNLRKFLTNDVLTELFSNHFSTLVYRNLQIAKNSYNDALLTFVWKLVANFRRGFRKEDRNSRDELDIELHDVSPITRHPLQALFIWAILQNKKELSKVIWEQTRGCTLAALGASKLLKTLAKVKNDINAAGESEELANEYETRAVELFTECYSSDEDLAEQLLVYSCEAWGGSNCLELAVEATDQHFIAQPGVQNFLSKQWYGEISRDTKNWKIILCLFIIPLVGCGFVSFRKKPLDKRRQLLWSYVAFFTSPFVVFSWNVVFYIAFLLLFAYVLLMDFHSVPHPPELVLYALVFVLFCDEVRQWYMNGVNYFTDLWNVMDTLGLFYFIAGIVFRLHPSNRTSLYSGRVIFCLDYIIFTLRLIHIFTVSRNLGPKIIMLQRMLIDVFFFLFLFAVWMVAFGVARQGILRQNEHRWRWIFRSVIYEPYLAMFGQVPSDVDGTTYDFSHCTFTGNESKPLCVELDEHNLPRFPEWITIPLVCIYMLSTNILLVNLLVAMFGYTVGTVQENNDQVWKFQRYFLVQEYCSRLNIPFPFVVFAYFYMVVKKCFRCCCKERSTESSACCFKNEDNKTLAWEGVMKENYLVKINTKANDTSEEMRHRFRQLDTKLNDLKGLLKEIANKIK
Protocol: as §1, §2, §3, §4

Structure (SMILES): CC(C)[C@@H]1CC[C@@H](C)C[C@@]1(O)C(=O)NCC1(O)CCc2ccccc21 (single isomer, unassigned) [Example 176]
EC50 (human TRPM8): 1.1 nM
EC50 (pig TRPM8): 1.3 nM

Structure (SMILES): CC(C)[C@@H]1CC[C@@H](C)C[C@@]1(O)C(=O)N[C@@H](CO)Cc1ccc(O)cc1 [Example 170, (1S,2S,5R)-1-hydroxy-N-[(1R)-1-(hydroxymethyl)-2-(4-hydroxyphenyl)ethyl]-2-isopropyl-5-methyl-cyclohexanecarboxamide]
EC50 (human TRPM8): 37.1 nM
EC50 (pig TRPM8): 60.3 nM

Structure (SMILES): CC(C)[C@@H]1CC[C@@H](C)C[C@@]1(O)C(=O)NCCc1cc(O)ccc1Br [Example 172, (1S,2S,5R)-N-[2-(2-bromo-5-hydroxy-phenyl)ethyl]-1-hydroxy-2-isopropyl-5-methyl-cyclohexanecarboxamide]
EC50 (human TRPM8): 9.7 nM
EC50 (pig TRPM8): 19 nM

Structure (SMILES): CC(C)[C@@H]1CC[C@@H](C)C[C@@]1(O)C(=O)N[C@@H](CO)Cc1ccccc1 [Example 47, (1S,2S,5R)-1-hydroxy-N-((2R)-1-hydroxy-3-phenylpropan-2-yl)-2-isopropyl-5-methylcyclohexane-1-carboxamide]
EC50 (human TRPM8): 641 nM
EC50 (pig TRPM8): 586 nM

Structure (SMILES): Cc1cccc(C(=O)CNC(=O)[C@]2(O)C[C@H](C)CC[C@H]2C(C)C)c1 [Example 141, (1S,2S,5R)-1-hydroxy-2-isopropyl-5-methyl-N-[2-(m-tolyl)-2-oxo-ethyl]cyclohexanecarboxamide]
EC50 (human TRPM8): 2.7 nM
EC50 (pig TRPM8): 1.2 nM

Structure (SMILES): Cc1cccnc1CCNC(=O)[C@]1(O)C[C@H](C)CC[C@H]1C(C)C [Example 127, (1S,2S,5R)-1-hydroxy-2-isopropyl-5-methyl-N-[2-(3-methyl-2-pyridyl)ethyl]cyclohexanecarboxamide]
EC50 (human TRPM8): 359 nM
EC50 (pig TRPM8): 152 nM

Structure (SMILES): COc1cc(CCNC(=O)[C@]2(O)C[C@H](C)CC[C@H]2C(C)C)ccc1O [Example 114, (1S,2S,5R)-1-hydroxy-N-[2-(4-hydroxy-3-methoxy-phenyl)ethyl]-2-isopropyl-5-methyl-cyclohexanecarboxamide]
EC50 (human TRPM8): 59.8 nM
EC50 (pig TRPM8): 28.2 nM

Structure (SMILES): CC(C)[C@@H]1CC[C@@H](C)C[C@@]1(O)C(=O)NCC(=O)c1ccc(O)cc1O [Example 102, (1S,2S,5R)—N-(2-(2,4-dihydroxyphenyl)-2-oxoethyl)-1-hydroxy-2-isopropyl-5-methylcyclohexane-1-carboxamide]
EC50 (human TRPM8): 42 nM
EC50 (pig TRPM8): 69 nM

Structure (SMILES): Cc1cccc(C(O)CNC(=O)[C@]2(O)C[C@H](C)CC[C@H]2C(C)C)c1 (stereo partly drawn) [Example 12, (1S,2S,5R)-1-hydroxy-N-(2-hydroxy-2-(m-tolyl)ethyl)-2-isopropyl-5-methylcyclohexane-1-carboxamide]
EC50 (human TRPM8): 3 nM
EC50 (pig TRPM8): 2 nM

Structure (SMILES): CC(C)[C@@H]1CC[C@@H](C)C[C@@]1(O)C(=O)NCC(=O)c1sccc1Cl [Example 148, (1S,2S,5R)-N-[2-(3-chloro-2-thienyl)-2-oxo-ethyl]-1-hydroxy-2-isopropyl-5-methyl-cyclohexanecarboxamide]
EC50 (human TRPM8): 4 nM
EC50 (pig TRPM8): 4 nM

Structure (SMILES): CC(=O)NCCOc1ccccc1CCNC(=O)[C@]1(O)C[C@H](C)CC[C@H]1C(C)C [Example 84, (1S,2S,5R)—N-(2-(2-acetamidoethoxy)phenethyl)-1-hydroxy-2-isopropyl-5-methylcyclohexane-1-carboxamide]
EC50 (human TRPM8): 143 nM
EC50 (pig TRPM8): 141 nM

The remaining compounds from weak to strong by EC50 (human TRPM8), led by results:

EC50 (human TRPM8): 7510 nM
EC50 (pig TRPM8): 749 nM
Structure (SMILES): COC[C@H](NC(=O)[C@]1(O)C[C@H](C)CC[C@H]1C(C)C)C(O)c1ccccc1 (stereo in doubt) [Example 122, (1S,2S,5R)-1-hydroxy-N-[(1S,2S)-2-hydroxy-1-(methoxymethyl)-2-phenyl-ethyl]-2-isopropyl-5-methyl-cyclohexanecarboxamide]

EC50 (human TRPM8): 1510 nM
EC50 (pig TRPM8): 713 nM
Structure (SMILES): CC(C)[C@@H]1CC[C@@H](C)C[C@@]1(O)C(=O)NCCc1nc2ccccc2[nH]1 [Example 8, (1S,2S,5R)—N-(2-(1H-benzo[d]imidazol-2-yl)ethyl)-1-hydroxy-2-isopropyl-5-methylcyclohexane-1-carboxamide 2-hydroxypropane-1,2,3-tricarboxylate]

EC50 (human TRPM8): 982 nM
EC50 (pig TRPM8): 259 nM
Structure (SMILES): CC(C)[C@@H]1CC[C@@H](C)C[C@@]1(O)C(=O)NCCc1cccc(CCC(=O)O)c1 [Example 87, 3-(3-(2-((1S,2S,5R)-1-hydroxy-2-isopropyl-5-methylcyclohexane-1-carboxamido)ethyl)phenyl)propanoic acid]

EC50 (human TRPM8): 501 nM
EC50 (pig TRPM8): 365 nM
Structure (SMILES): CC(C)[C@@H]1CC[C@@H](C)C[C@@]1(O)C(=O)NCC(=O)Oc1cc(O)cc(O)c1 [Example 76, 3,5-dihydroxyphenyl ((1S,2S,5R)-1-hydroxy-2-isopropyl-5-methylcyclohexane-1-carbonyl)glycinate]

EC50 (human TRPM8): 310 nM
EC50 (pig TRPM8): 47 nM
Structure (SMILES): COc1ccc2c(c1)CCC2CNC(=O)[C@]1(O)C[C@H](C)CC[C@H]1C(C)C (stereo partly drawn) [Example 152, (1S,2S,5R)-1-hydroxy-2-isopropyl-N-[(5-methoxyindan-1-yl)methyl]-5-methyl-cyclohexanecarboxamide]

EC50 (human TRPM8): 140 nM
EC50 (pig TRPM8): 72.2 nM
Structure (SMILES): CC(C)[C@@H]1CC[C@@H](C)C[C@@]1(O)C(=O)NCCc1cccc(S(N)(=O)=O)c1 [Example 133, (1S,2S,5R)-1-hydroxy-2-isopropyl-5-methyl-N-[2-(3-sulfamoylphenyl)ethyl]cyclohexanecarboxamide]

EC50 (human TRPM8): 58.4 nM
EC50 (pig TRPM8): 91.8 nM
Structure (SMILES): CC(C)[C@@H]1CC[C@@H](C)C[C@@]1(O)C(=O)NCCCc1ccc(O)cc1 [Example 167, (1S,2S,5R)-1-hydroxy-N-[3-(4-hydroxyphenyl)propyl]-2-isopropyl-5-methyl-cyclohexanecarboxamide]

EC50 (human TRPM8): 48.5 nM
EC50 (pig TRPM8): 18.2 nM
Structure (SMILES): Cc1cccc([C@@H](O)CNC(=O)[C@]2(O)C[C@H](C)CC[C@H]2C(C)C)c1 [Example 45, (1S,2S,5R)-1-hydroxy-N-((2R)-hydroxy-2-(m-tolyl)ethyl)-2-isopropyl-5-methylcyclohexane-1-carboxamide]

EC50 (human TRPM8): 43 nM
EC50 (pig TRPM8): 535 nM
Structure (SMILES): CC(C)[C@@H]1CC[C@@H](C)C[C@@]1(O)C(=O)NCC1(O)CCc2ccccc21 (single isomer, unassigned) [Example 175]

EC50 (human TRPM8): 30.8 nM
EC50 (pig TRPM8): 28.4 nM
Structure (SMILES): CC(C)[C@@H]1CC[C@@H](C)C[C@@]1(O)C(=O)NCCc1cccc(C(=O)OC[C@H](C)O)c1 [Example 105, (S)-2-hydroxypropyl 3-(2-((1S,2S,5R)-1-hydroxy-2-isopropyl-5-methylcyclohexane-1-carboxamido)ethyl)benzoate]

EC50 (human TRPM8): 18.8 nM
EC50 (pig TRPM8): 14.9 nM
Structure (SMILES): CC(C)[C@@H]1CC[C@@H](C)C[C@@]1(O)C(=O)NCC1CCOc2ccccc21 (stereo partly drawn) [Example 103, (1S,2S,5R)—N-(chroman-4-ylmethyl)-1-hydroxy-2-isopropyl-5-methylcyclohexane-1-carboxamide]

EC50 (human TRPM8): 18.7 nM
EC50 (pig TRPM8): 4.9 nM
Structure (SMILES): COc1ccc(C(=O)CNC(=O)[C@]2(O)C[C@H](C)CC[C@H]2C(C)C)cc1 [Example 121, (1S,2S,5R)-1-hydroxy-2-isopropyl-N-[2-(4-methoxyphenyl)-2-oxo-ethyl]-5-methyl-cyclohexanecarboxamide]

EC50 (human TRPM8): 4.1 nM
EC50 (pig TRPM8): 2.3 nM
Structure (SMILES): [2H]C(O)(CNC(=O)[C@]1(O)C[C@H](C)CC[C@H]1C(C)C)c1ccccc1 (single isomer, unassigned) [Example 92]
